Laboratory results taken from publication PMC9578396, “Intrinsic Antibacterial Activity of Xeruborbactam In Vitro: Assessing Spectrum and Mode of Action” (Antimicrobial Agents and Chemotherapy, 2022).
Read-outs that look alike come from different tables or passages of the source.

How the values were obtained:
Format in all cases: cell-based
Klebsiella pneumoniae = assay: microbe, parasite or virus in culture; conditions: Klebsiella pneumoniae
Method in brief: (§1)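 MICs by CLSI broth microdilution in in-house panels. Strains tested were engineered strains carrying porin and efflux mutation combinations, KPC-producing clinical isolates and derivatives cured of KPC plasmids, and KPC-producing clinical isolates enriched for porin mutations.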

Acinetobacter baumannii = assay: Broth microdilution MIC (CLSI), Acinetobacter baumannii; conditions: Acinetobacter baumannii
Excerpt: (§2) (i) Panels of engineered bacterial strains containing various combinations of porin and efflux mutations were used. The construction of all the strains used in the study is described in detail in references, [44], and [45]. (ii) KPC-producing clinical isolates and their derivatives that lost KPC plasmids were used also. These strains and their origins are described in the Table S2. (iii) Finally, KPC-producing clinical isolates enriched in strains with porin mutations were used. The mutations identified include various deletions, insertions, nonsense mutations, and decreased expression. Most of the isolates were obtained from JMI Laboratories or International Health Management Associates (IHMA); they were collected in the course of global surveillance studies.
(§3) Bacterial isolates were subjected to broth microdilution susceptibility testing, performed according to Clinical and Laboratory Standards Institute (CLSI) methods ([46]), using panels prepared in-house. […] Xeruborbactam was synthesized at Qpex Biopharma, San Diego, CA. Avibactam was purchased from eNovation Chemicals LLC, Bridgewater, NJ, USA; zidebactam was from MedKoo Biosciences, Inc., Morrisville, NC, and nacubactam was from Advanced ChemBlocks, Hayward, CA. Durlobactam was synthesized at Acme Bioscience, Palo Alto, CA, USA.

Enterobacterales = assay: Broth microdilution MIC (CLSI), Enterobacterales; conditions: read-out: antibacterial potency (MIC)
Excerpt: Bacterial isolates were subjected to broth microdilution susceptibility testing, performed according to Clinical and Laboratory Standards Institute (CLSI) methods ([46]), using panels prepared in-house. Meropenem was purchased from Sandoz, and all other antibiotics were from Sigma-Aldrich. Xeruborbactam was synthesized at Qpex Biopharma, San Diego, CA. Avibactam was purchased from eNovation Chemicals LLC, Bridgewater, NJ, USA; zidebactam was from MedKoo Biosciences, Inc., Morrisville, NC, and nacubactam was from Advanced ChemBlocks, Hayward, CA. Durlobactam was synthesized at Acme Bioscience, Palo Alto, CA, USA.

Escherichia coli = assay: Broth microdilution MIC (CLSI), Escherichia coli
Method in brief: as §1

Pseudomonas aeruginosa = assay: Broth microdilution MIC (CLSI), Pseudomonas aeruginosa; conditions: Pseudomonas aeruginosa
Excerpt: as §2, §3

[1] = KPM1026a, parent, read-out: MIC
[2] = strain KPM1026a, wild type, read-out: MIC
[3] = strain KPM1027, ramR, read-out: MIC
[4] = strain KPM1171, ramR ompK36_1171, read-out: MIC
[5] = strain KPM2040, ompK36_2040, read-out: MIC
[6] = strain KPM2613, ΔompK35 ompK36_2040
[7] = strain AB1007, wild type, read-out: MIC
[8] = strain ACM1015, ΔadeIJK ΔadeABC
[9] = strain ACM1027, adeN (AdeIJK overexpression)
[10] = strain ACM1030, adeS (AdeABC overexpression)
[11] = EC1078, PBP2 same as MG1655, PBP3 I332V
[12] = EC1081, PBP2 same as MG1655, PBP3 Q227H
[13] = EC1085, PBP2 T331P, PBP3 A233T I332V
[14] = EC1088, PBP2 A308G, PBP3 same as MG1655
[15] = EC1098, PBP2 V217M, PBP3 YRIN ins, I532L
[16] = EC1103, PBP2 same as MG1655, PBP3 YRIN ins, Q227H, E349K, I532L
[17] = EC1105, PBP2 A543T, PBP3 YRIN ins, Q227H, E349K, I532L
[18] = EC1119, PBP2 same as MG1655, PBP3 YRIN ins, Q227H, E349K, I532L
[19] = EC1121, PBP2 V217M, PBP3 YRIN ins, E349K, I532L
[20] = Escherichia coli, strain ECM5497, wild type, read-out: MIC
[21] = Escherichia coli, strain ECM6001, ΔacrB
[22] = Escherichia coli, strain ECM6502, marR (AcrAB overexpression)
[23] = strain PAM1020, wild type, read-out: MIC
[24] = strain PAM1032, nalB (MexAB-OprM overexpression)
[25] = strain PAM1033, nfxB (MexCD-OprJ overexpression)
[26] = strain PAM1034, nfxC (MexEF-OprN overexpression)

CC1=C[C@@H]2CN(C(=O)N2OS(=O)(=O)O)[C@@H]1C(N)=O [Durlobactam]
16 µg/mL: MIC (Klebsiella pneumoniae; KPM3534 (TolQ::S31F), alone) | MIC (Klebsiella pneumoniae; KPM3534, TolQ::S31F) | MIC (Klebsiella pneumoniae; KPM4235, TolQ::IP(183–1844)PR) | MIC (Klebsiella pneumoniae; KPM4236, TolQ::TAA at aa 103) | MIC (Klebsiella pneumoniae; KPM4238, TolQ::S25F) | MIC (Klebsiella pneumoniae; KPM4239, TolQ::S28F) | MIC (Klebsiella pneumoniae; KPM4240, TolQ::S25Y) | MIC (Acinetobacter baumannii; [8])
0.5: MIC (Escherichia coli; [14]) | MIC (Escherichia coli; [15]) | MIC (Escherichia coli; [19])
8: MIC (Escherichia coli; [11]) | MIC (Escherichia coli; [18])
> 256 µg/mL: MIC (Pseudomonas aeruginosa; [24])
32 µg/mL: MIC (Klebsiella pneumoniae; [4]) | MIC (Acinetobacter baumannii; strain ACM1013, ΔadeIJK)
32: MIC (Escherichia coli; [13])
0.5 µg/mL: MIC (Klebsiella pneumoniae; [2]) | MIC (Klebsiella pneumoniae; [3]) | MIC (Klebsiella pneumoniae; strain KPM2600, ΔompK35) | MIC (Escherichia coli; [20]) | MIC (Escherichia coli; [21])
0.125 to 0.5 µg/mL: MIC (Enterobacterales)
1: MIC (Escherichia coli; EC1097, PBP2 M574I, PBP3 Q227H) | MIC (Escherichia coli; [17])
0.25 µg/mL: MIC (Klebsiella pneumoniae; KPM1026a, alone, read-out: MIC) | MIC (Klebsiella pneumoniae; [1]) | MIC (Klebsiella pneumoniae; strain KPM2696, ΔacrB) | MIC (Escherichia coli; [22])
8 µg/mL: MIC (Klebsiella pneumoniae; KPM3532 (TolQ::M189K), alone) | MIC (Klebsiella pneumoniae; KPM3532, TolQ::M189K) | MIC (Klebsiella pneumoniae; [6]) | MIC (Pseudomonas aeruginosa; after inactivation of MexAB-OprM, read-out: MIC) | MIC (Pseudomonas aeruginosa; strain PAM1106, mexA::Tet) | MIC (Pseudomonas aeruginosa; strain PAM1154, oprM::Hg)
128 µg/mL: MIC (Acinetobacter baumannii; [9]) | MIC (Pseudomonas aeruginosa; [26])
0.25: MIC (Escherichia coli; [12]) | MIC (Escherichia coli; [16])
64 µg/mL: MIC (Acinetobacter baumannii; [7]) | MIC (Acinetobacter baumannii; strain ACM1014, ΔadeABC) | MIC (Acinetobacter baumannii; [10]) | MIC (Pseudomonas aeruginosa; before inactivation of MexAB-OprM (wild type), read-out: MIC) | MIC (Pseudomonas aeruginosa; [23])
4 µg/mL: MIC (Klebsiella pneumoniae; [5]) | MIC (Pseudomonas aeruginosa; [25])

O=C(NNC(=O)[C@@H]1CC[C@@H]2CN1C(=O)N2OS(=O)(=O)O)[C@@H]1CCCNC1 [Zidebactam]
0.25: MIC (Escherichia coli; [14]) | MIC (Escherichia coli; EC1097, PBP2 M574I, PBP3 Q227H) | MIC (Escherichia coli; [15]) | MIC (Escherichia coli; [16])
0.25 µg/mL: MIC (Klebsiella pneumoniae; KPM1026a, alone, read-out: MIC) | MIC (Klebsiella pneumoniae; [1]) | MIC (Klebsiella pneumoniae; [2]) | MIC (Klebsiella pneumoniae; [3]) | MIC (Klebsiella pneumoniae; strain KPM2600, ΔompK35) | MIC (Klebsiella pneumoniae; strain KPM2696, ΔacrB)
0.125 µg/mL: MIC (Escherichia coli; [20]) | MIC (Escherichia coli; [21]) | MIC (Pseudomonas aeruginosa; [25])
0.125 to 0.5 µg/mL: MIC (Enterobacterales)
8: MIC (Escherichia coli; [11]) | MIC (Escherichia coli; [18])
> 256 µg/mL: MIC (Acinetobacter baumannii; [7]) | MIC (Acinetobacter baumannii; strain ACM1013, ΔadeIJK) | MIC (Acinetobacter baumannii; strain ACM1014, ΔadeABC) | MIC (Acinetobacter baumannii; [8]) | MIC (Acinetobacter baumannii; [9]) | MIC (Acinetobacter baumannii; [10])
0.5 µg/mL: MIC (Escherichia coli; [22])
> 64 µg/mL: MIC (Klebsiella pneumoniae; KPM3532 (TolQ::M189K), alone) | MIC (Klebsiella pneumoniae; KPM3532, TolQ::M189K) | MIC (Klebsiella pneumoniae; KPM3534 (TolQ::S31F), alone) | MIC (Klebsiella pneumoniae; KPM3534, TolQ::S31F) | MIC (Klebsiella pneumoniae; KPM4235, TolQ::IP(183–1844)PR) | MIC (Klebsiella pneumoniae; KPM4236, TolQ::TAA at aa 103) | MIC (Klebsiella pneumoniae; KPM4238, TolQ::S25F) | MIC (Klebsiella pneumoniae; KPM4239, TolQ::S28F) | MIC (Klebsiella pneumoniae; KPM4240, TolQ::S25Y) | MIC (Klebsiella pneumoniae; [4]) | MIC (Klebsiella pneumoniae; [5]) | MIC (Klebsiella pneumoniae; [6])
2 µg/mL: MIC (Pseudomonas aeruginosa; [23]) | MIC (Pseudomonas aeruginosa; [26]) | MIC (Pseudomonas aeruginosa; strain PAM1106, mexA::Tet) | MIC (Pseudomonas aeruginosa; strain PAM1154, oprM::Hg)
0.125: MIC (Escherichia coli; [12])
4 µg/mL: MIC (Pseudomonas aeruginosa; [24])
0.5: MIC (Escherichia coli; [17]) | MIC (Escherichia coli; [19])
16: MIC (Escherichia coli; [13])
4 fold: fold effect on MIC (Escherichia coli; overexpression of AcrAB in E. coli)
